Laboratory results: patent US5006546A, “Imidazole derivatives” (Rhone-Poulenc Sante, priority 1989, dated 1991)

Molecular target: T1, acyl coenzyme-A:cholesterol-O-acyl transferase (ACAT; EC 2.3.1.26) (Rattus norvegicus, UniProt Q7TQM4)
T1 construct: microsomes obtained from the livers of rats; from tissue; host or cells: liver microsomes of rats fed 0.5% w/w cholesterol and 0.25% w/w cholic acid
T1 sequence (Q7TQM4 1-524): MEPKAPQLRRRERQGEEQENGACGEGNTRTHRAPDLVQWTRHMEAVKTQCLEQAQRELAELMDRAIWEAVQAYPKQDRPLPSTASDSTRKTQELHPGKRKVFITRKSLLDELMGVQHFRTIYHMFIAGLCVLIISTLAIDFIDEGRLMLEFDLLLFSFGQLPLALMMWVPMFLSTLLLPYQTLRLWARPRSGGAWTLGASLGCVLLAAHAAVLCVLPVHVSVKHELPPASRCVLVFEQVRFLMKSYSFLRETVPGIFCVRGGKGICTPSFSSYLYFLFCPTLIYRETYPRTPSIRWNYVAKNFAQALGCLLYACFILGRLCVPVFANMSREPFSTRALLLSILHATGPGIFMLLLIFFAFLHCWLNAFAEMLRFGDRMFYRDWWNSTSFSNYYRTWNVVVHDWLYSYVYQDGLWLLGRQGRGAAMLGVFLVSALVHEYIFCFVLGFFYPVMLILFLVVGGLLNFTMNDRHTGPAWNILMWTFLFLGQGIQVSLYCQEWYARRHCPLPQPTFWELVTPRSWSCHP
Assay: In vitro inhibition of acyl coenzyme-A:cholesterol-O-acyl transferase (ACAT) in liver microsomes of cholesterol/cholic acid-fed rats
Format: biochemical
Conditions: microsomes from livers of rats fed a diet containing 0.5% w/w cholesterol and 0.25% w/w cholic acid

Row | IC50 | Compound
1 | 0.05 µM | CO[C@@H]1C[C@H](O)C[C@@H](CSc2nc(-c3ccccc3)c(-c3ccccc3)[nH]2)O1 [(I), (2S,4R,6S)-6-[(4,5-diphenylimidazol-2-yl)thiomethyl]-4-hydroxy-2-methoxy-3,4,5,6-tetrahydro-2H-pyran]
2 | 0.091 µM | CO[C@H]1C[C@H](O)C[C@@H](CSc2nc(-c3ccccc3)c(-c3ccccc3)[nH]2)O1 [(II), (2R,4R,6S)-6-[(4,5-diphenylimidazol-2-yl)thiomethyl]-4-hydroxy-2-methoxy-3,4,5,6-tetrahydro-2H-pyran]
